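Cultured in 96-well plates, cells were exposed to test compound for 48 hours across five concentrations. The concentration for 50% growth inhibition is given as GI50.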 The source made the active and inactive calls. Cut-off read from the data, not from the text of the source: active = GI50 up to about 1.1 µM and inactive = higher.
Columns and labels:
Assay in all cases: NCI-60 cell line screen, 48 h
A498 = tested on: A498
A549 = tested on: A549
ACHN = tested on: ACHN
BT-549 = tested on: BT-549
IGROV-1 = tested on: IGROV-1
K562 = tested on: K562
KM12 = tested on: KM12
M14 = tested on: M14
MOLT-4 = tested on: MOLT-4
NCI-H23 = tested on: NCI-H23
NCI-H460 = tested on: NCI-H460
OVCAR-3 = tested on: OVCAR-3
RPMI-8226 = tested on: RPMI-8226
SF-268 = tested on: SF-268
SK-MEL-5 = tested on: SK-MEL-5
SK-OV-3 = tested on: SK-OV-3
SN12C = tested on: SN12C
SR = tested on: SR
U-251 = tested on: U-251
UACC-62 = tested on: UACC-62

Measured: GI50

CSc1ncnc2c1ncn2CC(=O)C1CCC2C3CCC4=CC(=O)CCC4(C)C3CCC12C (stereo unspecified)
inactive: A498 5.13 µM | A549 6.81 µM | ACHN 4.97 µM | BT-549 2.58 µM | IGROV-1 6.95 µM | K562 3.47 µM | KM12 2.84 µM | M14 2.4 µM | MOLT-4 1.69 µM | NCI-H23 3.79 µM | NCI-H460 4.35 µM | OVCAR-3 4.25 µM | RPMI-8226 1.45 µM | SF-268 14.6 µM | SK-MEL-5 2.04 µM | SK-OV-3 16.3 µM | SN12C 18.3 µM | SR 2.16 µM | U-251 7.62 µM | UACC-62 3.21 µM

C[C@@]12C[C@@H](c3ccccc3O1)N1CCCSC1=N2
inactive: A498 > 100 µM | ACHN > 100 µM | BT-549 > 100 µM | IGROV-1 > 100 µM | K562 > 100 µM | KM12 > 100 µM | M14 > 100 µM | MOLT-4 > 100 µM | NCI-H23 > 100 µM | NCI-H460 > 100 µM | OVCAR-3 > 100 µM | RPMI-8226 > 100 µM | SF-268 > 100 µM | SK-MEL-5 > 100 µM | SK-OV-3 > 100 µM | SN12C > 100 µM | SR > 100 µM | U-251 > 100 µM | UACC-62 > 100 µM

CCCCCCN(CCCCCC)CCC(=O)c1ccc2cc(Br)c3ccccc3c2c1
inactive: A498 36.3 µM | A549 > 100 µM | ACHN 54.1 µM | BT-549 20.3 µM | IGROV-1 40.3 µM | K562 41.1 µM | KM12 11.5 µM | M14 82.6 µM | NCI-H23 81.8 µM | NCI-H460 30.5 µM | OVCAR-3 33 µM | RPMI-8226 9.31 µM | SF-268 28.1 µM | SK-MEL-5 26.1 µM | SK-OV-3 39.1 µM | SN12C 34 µM | U-251 36.2 µM | UACC-62 25.8 µM
active: SR 0.318 µM

CC1=C(C)C(=O)OC(C(C)(O)C2(O)CCC3(O)C4CC(Cl)C5(O)C(O)C=CC(=O)C5(C)C4CCC32C)C1 (stereo unspecified)
inactive: A498 52.6 µM | A549 69.3 µM | ACHN 42.1 µM | BT-549 46.3 µM | IGROV-1 49.3 µM | K562 12.3 µM | KM12 25.6 µM | M14 40.3 µM | MOLT-4 10.1 µM | NCI-H23 64.7 µM | NCI-H460 36.1 µM | OVCAR-3 52.8 µM | RPMI-8226 8.99 µM | SF-268 48.1 µM | SK-OV-3 41.6 µM | SN12C 61 µM | SR 8.51 µM | U-251 37.5 µM | UACC-62 9.1 µM

COC(=O)C1(C)CCC(c2ccc(C)cc2)=C(CC(=O)O)C1 (stereo unspecified)
inactive: A498 > 100 µM | A549 > 100 µM | ACHN > 100 µM | BT-549 > 100 µM | IGROV-1 > 100 µM | K562 > 100 µM | M14 > 100 µM | MOLT-4 > 100 µM | NCI-H23 > 100 µM | NCI-H460 > 100 µM | OVCAR-3 > 100 µM | RPMI-8226 > 100 µM | SF-268 > 100 µM | SK-MEL-5 > 100 µM | SK-OV-3 > 100 µM | SN12C > 100 µM | SR > 100 µM | U-251 > 100 µM | UACC-62 > 100 µM

Cc1ccc2c(c1)C(=O)C(C1OC(=O)c3ccccc31)C2 (stereo unspecified)
inactive: A498 > 100 µM | A549 > 100 µM | ACHN 83.8 µM | BT-549 > 100 µM | IGROV-1 > 100 µM | K562 97.3 µM | KM12 > 100 µM | M14 > 100 µM | MOLT-4 92.5 µM | NCI-H23 > 100 µM | NCI-H460 > 100 µM | OVCAR-3 91 µM | RPMI-8226 45.8 µM | SF-268 > 100 µM | SK-MEL-5 65.3 µM | SK-OV-3 > 100 µM | SN12C 92.7 µM | SR 74.5 µM | U-251 61 µM | UACC-62 96.2 µM

COc1ccc(/C=C2\c3cc(OC)c(OC)cc3CCN2C(=O)c2ccccc2)cc1OC
inactive: A498 35.4 µM | A549 37.8 µM | ACHN 53.5 µM | BT-549 27.7 µM | IGROV-1 > 100 µM | K562 32.1 µM | KM12 49.9 µM | M14 58.2 µM | MOLT-4 25.2 µM | NCI-H23 87.5 µM | NCI-H460 28.1 µM | OVCAR-3 35.7 µM | RPMI-8226 29.4 µM | SF-268 46.3 µM | SK-MEL-5 18.5 µM | SN12C 70.1 µM | SR 30.8 µM | U-251 82.6 µM | UACC-62 36.7 µM

CCN(CC)C(=S)SS(=O)(=O)c1ccc(Cl)cc1
inactive: A498 > 100 µM | ACHN 33.2 µM | BT-549 34.4 µM | K562 14.5 µM | KM12 11.7 µM | M14 17.3 µM | NCI-H23 38.5 µM | NCI-H460 29 µM | OVCAR-3 31.7 µM | RPMI-8226 15 µM | SF-268 53 µM | SK-MEL-5 9.04 µM | SK-OV-3 64.3 µM | SN12C 20.2 µM | U-251 15.1 µM | UACC-62 20.5 µM
active: A549 0.484 µM | SR 0.0796 µM

CC1(C)O[C@@H]2[C@@H]3OC(=O)C[C@@H]3[C@@H](COCc3ccccc3)[C@@H]2O1
inactive: A498 > 100 µM | A549 > 100 µM | ACHN > 100 µM | BT-549 > 100 µM | IGROV-1 > 100 µM | K562 > 100 µM | KM12 > 100 µM | M14 > 100 µM | MOLT-4 > 100 µM | NCI-H23 > 100 µM | NCI-H460 > 100 µM | OVCAR-3 > 100 µM | RPMI-8226 > 100 µM | SF-268 > 100 µM | SK-MEL-5 > 100 µM | SK-OV-3 > 100 µM | SN12C > 100 µM | SR > 100 µM | U-251 > 100 µM | UACC-62 > 100 µM

CCc1n[nH]c(=O)n1N1C(=O)C2CC=CCC2C1=O (stereo unspecified)
inactive: A498 > 100 µM | A549 > 100 µM | ACHN > 100 µM | BT-549 > 100 µM | IGROV-1 > 100 µM | K562 > 100 µM | KM12 > 100 µM | M14 > 100 µM | MOLT-4 > 100 µM | NCI-H23 > 100 µM | NCI-H460 > 100 µM | OVCAR-3 > 100 µM | RPMI-8226 > 100 µM | SF-268 > 100 µM | SK-MEL-5 > 100 µM | SK-OV-3 > 100 µM | SN12C > 100 µM | SR > 100 µM | U-251 > 100 µM | UACC-62 > 100 µM

CC(C)CCCC(C)[C@H]1CC[C@H]2n3c(nc4ccccc43)CCC[C@]12C (stereo partly specified)
inactive: A498 13.2 µM | A549 20.1 µM | BT-549 19.2 µM | IGROV-1 17 µM | K562 15.6 µM | KM12 19.7 µM | M14 16.2 µM | MOLT-4 16.1 µM | NCI-H23 16.9 µM | NCI-H460 15.9 µM | OVCAR-3 17.4 µM | RPMI-8226 10.8 µM | SF-268 20.3 µM | SK-MEL-5 16.4 µM | SK-OV-3 17.1 µM | SN12C 15.9 µM | SR 15.8 µM | U-251 19.2 µM | UACC-62 16.2 µM

COc1cccc2cc(C(=O)Nc3ccccn3)c(=N)oc12
inactive: A498 > 100 µM | A549 > 100 µM | ACHN 60.3 µM | BT-549 78.2 µM | IGROV-1 > 100 µM | K562 39.4 µM | KM12 99.3 µM | M14 72.8 µM | NCI-H23 52.5 µM | NCI-H460 > 100 µM | OVCAR-3 23.7 µM | RPMI-8226 75.7 µM | SF-268 64.1 µM | SK-MEL-5 > 100 µM | SK-OV-3 85.3 µM | SN12C > 100 µM | SR 2.43 µM | U-251 > 100 µM | UACC-62 64.4 µM
active: MOLT-4 0.501 µM

CCOc1ccc(/N=N/S(=O)(=O)O)cc1
inactive: A498 > 100 µM | A549 > 100 µM | ACHN > 100 µM | BT-549 > 100 µM | IGROV-1 > 100 µM | K562 > 100 µM | KM12 > 100 µM | M14 > 100 µM | NCI-H23 > 100 µM | NCI-H460 > 100 µM | OVCAR-3 > 100 µM | RPMI-8226 > 100 µM | SF-268 > 100 µM | SK-MEL-5 > 100 µM | SK-OV-3 > 100 µM | SN12C > 100 µM | SR > 100 µM | U-251 > 100 µM | UACC-62 > 100 µM

O=c1c2cc(Cl)ccc2n2nnc3ccc(NCCNCCO)c1c32
active: A549 0.719 µM | ACHN 0.682 µM | K562 0.589 µM | KM12 1.09 µM | MOLT-4 0.394 µM | NCI-H460 0.378 µM | SN12C 0.731 µM | SR 0.641 µM | U-251 0.853 µM
inactive: A498 1.44 µM | BT-549 1.79 µM | IGROV-1 2.11 µM | M14 1.38 µM | NCI-H23 1.36 µM | OVCAR-3 1.59 µM | RPMI-8226 1.53 µM | SF-268 2.74 µM | SK-MEL-5 1.48 µM | SK-OV-3 2.67 µM | UACC-62 2.31 µM
